The source of these data is paper PMC10485906, “Development of a Dihydroquinoline–Pyrazoline GluN2C/2D-Selective Negative Allosteric Modulator of the N-Methyl-D-aspartate Receptor” (ACS Chemical Neuroscience, 2023).

“And” between values parts separate entries of the source, which are not always exact repeats. Equal values may be shown once. “Also recorded” adds a separate entry of the source. Read-outs that look alike come from different tables or passages of the source.

One series concerns hGluA3-L531Y. The series can be described thus: Off-target, oocytes, GluA3. It counts as cell-based, human. Particulars: 1 µM compound; 100 µM glutamate. As for the experimental part: (§1) Analysis of Off-target Actions
(§2) Compound (S)-(-)-2i was tested at 1 µM for actions at glycine-activated GluN1/GluN3A (human GluN1-F484A,T518L/GluN3A referred to a GluN1-FA,TL/GluN3A) and rat GluN1-4a/GluN3B in the presence of 0.5 µM CGP-78608. cRNA injection ratios for GluN1/GluN3 were 1:2. Compound (S)-(-)- 2i was also tested for actions at AMPA (rat GluA1, rat GluA2, human GluA3-L531Y), kainate (rat GluK2), nicotinic acetylcholine (rat α7 and α4β2, cRNA ratio 1:1), GABAA (rat α1β2γ2S, cRNA ratio 1:1:1), GABAC (rat ρ1), glycine (rat α1), and purinergic (human P2X) receptors expressed in Xenopus oocytes. cRNA encoding the receptor subunits was synthesized from linear template cDNA using the mMessage mMachine kit (Ambion). Oocytes were injected with 1-5 ng cRNA in a 50 nL volume and incubated in Barth's solution at 15°C for 2-5 days prior to recording. GluK2-expressing oocyte were incubated in 1 mg/ml (10 µM) concanavalin-A for 10 min prior to recording. The cDNAs encoding GABAC and glycine subunits were provided by Dr. D. Weiss (University of Texas Health Science Center at San Antonio). cDNAs encoding nicotinic acetylcholine receptor subunits were provided by Drs. […]
(§3) GABA. […] Responses in presence of test compound were expressed as a percent of control. […]

A further series concerns the target T1, GluK2 (Rattus norvegicus, UniProt P42260).
T1 construct: expressed in transfected cells; host or cells: Xenopus oocytes (cRNA injection)
In words: Off-target, oocytes, GluK2. Particulars: 1 µM compound; 100 µM glutamate. In kind it is cell-based. How it is done:
as §1, §2, §3

For series [1], the system named is AMPA, kainate, GluN1/GluN3, GABA, glycine, nicotinic, purinergic P2X receptors. In words: Off-target actions, summary in words. It counts as cell-based. Conditions: 1 μM. How it is done:
By contrast, the other enantiomer (R)-(+)-2i had lower potency and produced shallow, incomplete inhibition (Figure S11).
as §1, §2, §3

A further series concerns hP2x. In words: Off-target, oocytes, purinergic receptor. In kind it is cell-based, human. Particulars: 1 µM compound; 9 µM ATP. As for the experimental part:
as §1, §2, §3

A short description of series [2]: Mouse plasma and brain pharmacokinetics, IV administration. In kind it is in vivo. Particulars: 5 mg/kg IV; for concentration at 0.25 h / concentration at 1 h / concentration at 3 h: male, C57BL/6, mouse, intravenous, 5 mg/kg. As for the experimental part:
IACUC-approved protocols and animal welfare regulations outlined in the “Guide for the Care and Use of Laboratory Animals” were both followed during the pharmacokinetic evaluation of all compounds. In vivo analysis was performed by Pharmaron (IP administration, Irvine, CA) and Sai Life (IV administration, Hinjewadi Pune, Pune, India).
Nine male C57BL/6 mice were administered intravenously (IV) with solution formulation of prodrug at 5 mg/kg dose (5 mL/kg) in 5% […], 5% Solutol HS-15, and 90% saline. Blood samples (∼60 μL) were collected under light isoflurane anesthesia from a set of three mice at 0.25, 1, and 3 h. Plasma was harvested by centrifugation of blood and stored at −70 ± 10 °C until analysis. Immediately after the collection of blood, brain samples were collected from each mouse at respective time points. Brain samples were homogenized using ice-cold phosphate-buffered saline (pH 7.4), and homogenates were stored below −70 ± 10 °C until analysis. The total homogenate volume was 3 times that of the brain weight. The plasma and brain concentration–time data of compounds 2i were used for the pharmacokinetic analysis. Plasma and brain samples were quantified by the fit-for-purpose LC-MS/MS method (LLOQ: 2.06 ng/mL for plasma and 5.16 ng/mL for brain).

The target in a further series is GluN1/GluN2C (Rattus norvegicus, UniProt Q00961). On the set-up: GluN2B (NM_012574.1), GluN2C (NM_012575.3), and GluN2D (NM_022797.2) were provided by; expressed in transfected cells; host or cells: Xenopus laevis oocytes (cRNA injection). Conditions: reproduced for comparison; cited from earlier work.
Sequence of GluN1/GluN2C (Q00961 20-1237, other chains not shown): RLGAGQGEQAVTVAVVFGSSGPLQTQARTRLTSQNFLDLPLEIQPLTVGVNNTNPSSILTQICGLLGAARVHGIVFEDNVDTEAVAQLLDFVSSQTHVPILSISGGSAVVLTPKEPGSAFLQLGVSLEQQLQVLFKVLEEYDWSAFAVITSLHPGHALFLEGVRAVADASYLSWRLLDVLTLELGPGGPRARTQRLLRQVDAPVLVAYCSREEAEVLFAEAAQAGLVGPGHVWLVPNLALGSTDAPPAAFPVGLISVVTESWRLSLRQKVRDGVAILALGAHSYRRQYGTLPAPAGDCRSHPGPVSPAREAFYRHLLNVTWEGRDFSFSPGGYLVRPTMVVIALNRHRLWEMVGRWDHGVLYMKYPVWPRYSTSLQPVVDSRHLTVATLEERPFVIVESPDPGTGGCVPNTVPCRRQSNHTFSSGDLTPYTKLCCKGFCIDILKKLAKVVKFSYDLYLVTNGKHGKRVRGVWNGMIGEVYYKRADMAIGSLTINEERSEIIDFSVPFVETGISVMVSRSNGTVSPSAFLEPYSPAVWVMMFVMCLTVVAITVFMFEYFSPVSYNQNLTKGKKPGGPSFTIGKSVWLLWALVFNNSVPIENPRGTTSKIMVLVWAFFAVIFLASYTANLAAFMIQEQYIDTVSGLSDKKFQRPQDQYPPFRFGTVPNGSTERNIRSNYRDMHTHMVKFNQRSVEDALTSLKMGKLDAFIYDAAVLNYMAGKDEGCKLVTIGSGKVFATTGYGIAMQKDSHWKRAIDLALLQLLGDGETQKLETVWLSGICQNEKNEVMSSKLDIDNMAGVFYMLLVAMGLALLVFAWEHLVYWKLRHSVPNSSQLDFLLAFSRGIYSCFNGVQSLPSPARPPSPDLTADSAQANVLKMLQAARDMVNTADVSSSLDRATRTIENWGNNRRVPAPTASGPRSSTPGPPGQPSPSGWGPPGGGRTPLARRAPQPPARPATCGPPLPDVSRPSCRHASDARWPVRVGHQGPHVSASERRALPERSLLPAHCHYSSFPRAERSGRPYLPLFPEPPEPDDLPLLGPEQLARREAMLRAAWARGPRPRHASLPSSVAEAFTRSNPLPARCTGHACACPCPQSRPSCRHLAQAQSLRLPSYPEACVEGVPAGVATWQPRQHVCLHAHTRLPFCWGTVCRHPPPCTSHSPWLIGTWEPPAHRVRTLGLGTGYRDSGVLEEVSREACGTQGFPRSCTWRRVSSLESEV
In another series the target is GluN1/GluN2D (Rattus norvegicus, UniProt Q62645). On the set-up: GluN2B (NM_012574.1), GluN2C (NM_012575.3), and GluN2D (NM_022797.2) were provided by; expressed in transfected cells; host or cells: Xenopus laevis oocytes (cRNA injection). Conditions: cited from earlier work.
Sequence of GluN1/GluN2D (Q62645 28-1323, other chains not shown): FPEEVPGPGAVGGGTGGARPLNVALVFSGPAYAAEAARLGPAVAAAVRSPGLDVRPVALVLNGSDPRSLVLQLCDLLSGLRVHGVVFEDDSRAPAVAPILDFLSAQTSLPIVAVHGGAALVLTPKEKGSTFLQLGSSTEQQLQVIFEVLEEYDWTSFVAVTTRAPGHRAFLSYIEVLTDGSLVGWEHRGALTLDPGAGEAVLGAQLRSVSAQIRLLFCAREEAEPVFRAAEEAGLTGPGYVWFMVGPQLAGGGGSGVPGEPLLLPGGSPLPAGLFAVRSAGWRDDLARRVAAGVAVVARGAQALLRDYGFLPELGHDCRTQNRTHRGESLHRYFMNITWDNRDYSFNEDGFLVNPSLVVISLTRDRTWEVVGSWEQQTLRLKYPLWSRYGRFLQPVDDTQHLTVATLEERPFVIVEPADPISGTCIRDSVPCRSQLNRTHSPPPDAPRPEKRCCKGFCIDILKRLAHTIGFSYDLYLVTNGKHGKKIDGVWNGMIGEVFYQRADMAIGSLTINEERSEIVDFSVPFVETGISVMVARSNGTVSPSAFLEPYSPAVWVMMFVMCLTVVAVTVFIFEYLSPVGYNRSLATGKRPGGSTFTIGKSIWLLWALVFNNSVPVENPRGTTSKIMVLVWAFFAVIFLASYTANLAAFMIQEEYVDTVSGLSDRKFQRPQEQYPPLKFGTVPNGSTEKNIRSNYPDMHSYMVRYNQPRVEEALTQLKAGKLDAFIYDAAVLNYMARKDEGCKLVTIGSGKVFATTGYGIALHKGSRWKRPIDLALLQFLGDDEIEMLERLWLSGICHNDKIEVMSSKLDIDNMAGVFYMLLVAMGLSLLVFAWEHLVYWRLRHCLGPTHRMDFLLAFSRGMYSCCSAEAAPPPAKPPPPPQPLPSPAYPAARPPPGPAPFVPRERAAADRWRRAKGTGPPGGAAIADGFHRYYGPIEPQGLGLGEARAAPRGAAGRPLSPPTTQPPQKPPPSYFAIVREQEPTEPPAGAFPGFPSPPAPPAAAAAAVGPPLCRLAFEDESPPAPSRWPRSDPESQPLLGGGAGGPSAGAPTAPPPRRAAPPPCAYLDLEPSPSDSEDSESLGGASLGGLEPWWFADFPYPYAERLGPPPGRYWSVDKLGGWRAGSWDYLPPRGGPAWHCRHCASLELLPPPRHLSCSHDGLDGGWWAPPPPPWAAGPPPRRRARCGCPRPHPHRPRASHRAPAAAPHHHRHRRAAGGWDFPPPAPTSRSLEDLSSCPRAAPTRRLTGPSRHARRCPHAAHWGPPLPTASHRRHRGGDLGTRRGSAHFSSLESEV
For a further series, the target named is T2, GluN1/GluN2B (Rattus norvegicus, UniProt Q00960).
T2 construct: GluN2B (NM_012574.1), GluN2C (NM_012575.3), and GluN2D (NM_022797.2) were provided by; expressed in transfected cells; host or cells: Xenopus laevis oocytes (cRNA injection)
T2 sequence (Q00960 27-1482, other chains not shown): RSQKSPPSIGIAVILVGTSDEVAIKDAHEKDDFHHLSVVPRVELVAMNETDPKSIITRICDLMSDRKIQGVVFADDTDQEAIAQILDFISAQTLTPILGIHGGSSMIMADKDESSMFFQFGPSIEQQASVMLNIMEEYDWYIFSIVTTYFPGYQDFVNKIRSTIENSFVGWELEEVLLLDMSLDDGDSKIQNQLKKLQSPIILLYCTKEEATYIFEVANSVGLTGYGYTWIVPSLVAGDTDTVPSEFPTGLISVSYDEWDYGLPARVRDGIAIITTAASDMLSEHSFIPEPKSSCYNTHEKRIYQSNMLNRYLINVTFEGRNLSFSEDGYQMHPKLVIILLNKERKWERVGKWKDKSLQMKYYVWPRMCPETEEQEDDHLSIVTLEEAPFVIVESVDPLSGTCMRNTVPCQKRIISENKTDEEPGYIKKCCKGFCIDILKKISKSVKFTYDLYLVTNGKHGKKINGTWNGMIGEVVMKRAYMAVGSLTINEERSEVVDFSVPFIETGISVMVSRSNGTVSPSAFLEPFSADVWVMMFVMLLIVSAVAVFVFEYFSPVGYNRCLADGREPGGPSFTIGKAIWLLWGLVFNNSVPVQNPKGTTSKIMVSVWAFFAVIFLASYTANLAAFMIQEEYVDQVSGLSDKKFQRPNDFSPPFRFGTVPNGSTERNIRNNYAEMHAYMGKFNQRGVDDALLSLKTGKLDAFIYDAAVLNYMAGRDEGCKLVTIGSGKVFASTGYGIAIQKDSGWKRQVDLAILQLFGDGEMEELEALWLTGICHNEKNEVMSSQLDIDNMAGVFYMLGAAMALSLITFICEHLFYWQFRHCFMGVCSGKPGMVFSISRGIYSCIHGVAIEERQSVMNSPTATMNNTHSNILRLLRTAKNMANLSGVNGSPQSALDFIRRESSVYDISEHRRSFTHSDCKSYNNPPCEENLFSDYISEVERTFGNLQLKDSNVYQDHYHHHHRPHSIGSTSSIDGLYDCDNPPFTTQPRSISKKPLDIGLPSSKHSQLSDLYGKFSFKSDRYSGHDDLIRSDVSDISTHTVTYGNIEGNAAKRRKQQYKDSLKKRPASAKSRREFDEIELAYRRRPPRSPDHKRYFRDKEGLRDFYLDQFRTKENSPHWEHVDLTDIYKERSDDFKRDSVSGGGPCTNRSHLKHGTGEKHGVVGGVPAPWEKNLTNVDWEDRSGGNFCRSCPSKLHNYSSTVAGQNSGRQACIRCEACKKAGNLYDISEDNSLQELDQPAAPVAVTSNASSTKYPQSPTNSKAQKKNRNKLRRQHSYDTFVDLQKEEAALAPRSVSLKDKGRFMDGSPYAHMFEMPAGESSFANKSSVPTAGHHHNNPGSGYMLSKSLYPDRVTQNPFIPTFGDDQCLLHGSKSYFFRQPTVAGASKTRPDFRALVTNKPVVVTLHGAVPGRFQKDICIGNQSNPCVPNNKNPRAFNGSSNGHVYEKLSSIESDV
On the set-up: method as in PMID 23909910. Particulars: reproduced for comparison; cited from earlier work.

T1 sequence (P42260 32-908): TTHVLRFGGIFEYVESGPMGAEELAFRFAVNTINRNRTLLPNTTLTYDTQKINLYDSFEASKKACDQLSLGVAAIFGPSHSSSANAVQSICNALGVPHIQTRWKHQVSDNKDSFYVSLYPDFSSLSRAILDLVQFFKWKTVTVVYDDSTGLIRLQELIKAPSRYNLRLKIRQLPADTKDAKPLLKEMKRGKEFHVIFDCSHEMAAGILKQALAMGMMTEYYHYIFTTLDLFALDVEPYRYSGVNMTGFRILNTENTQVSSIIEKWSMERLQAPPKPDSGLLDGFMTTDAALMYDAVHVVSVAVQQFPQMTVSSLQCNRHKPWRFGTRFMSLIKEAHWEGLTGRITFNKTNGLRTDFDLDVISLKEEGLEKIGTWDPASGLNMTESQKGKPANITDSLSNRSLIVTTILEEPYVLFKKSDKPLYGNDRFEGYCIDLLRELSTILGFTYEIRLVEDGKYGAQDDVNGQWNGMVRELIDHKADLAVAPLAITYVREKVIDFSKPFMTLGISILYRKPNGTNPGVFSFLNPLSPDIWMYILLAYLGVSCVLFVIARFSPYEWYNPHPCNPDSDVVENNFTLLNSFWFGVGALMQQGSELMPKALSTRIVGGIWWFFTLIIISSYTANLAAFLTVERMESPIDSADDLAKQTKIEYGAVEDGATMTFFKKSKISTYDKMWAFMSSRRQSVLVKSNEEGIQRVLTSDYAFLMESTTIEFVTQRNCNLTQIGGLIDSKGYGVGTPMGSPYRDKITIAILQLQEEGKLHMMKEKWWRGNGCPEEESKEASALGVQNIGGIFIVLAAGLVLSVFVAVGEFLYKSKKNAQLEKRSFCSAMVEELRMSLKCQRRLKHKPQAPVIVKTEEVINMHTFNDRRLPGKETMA

Take `O=C(O)CC(F)(F)C(=O)N1N=C(c2c(-c3ccc(Cl)cc3)c3ccccc3[nH]c2=O)C[C@H]1c1ccc(Cl)cc1` [(S)-(−)-2i]: the “% control hGluA3-L531Y” value in the series with hGluA3-L531Y was determined as 105 ± 1.2%. Also, the “% control GluK2” value at GluK2 came out at 100 ± 1.0%. Moreover, the “off-target actions” value in series [1] is “no effects; also recorded: no activity”. Besides, in the series with hP2x, the “% control hP2x” value was found to be 108 ± 0.53%.
Take `O=C(O)CC(F)(F)C(=O)N1N=C(c2c(-c3ccc(Cl)cc3)c3ccccc3[nH]c2=O)CC1c1ccc(Cl)cc1` (stereo not drawn) [2i]: the “drop of plasma levels at 1 h” value in series [2] was roughly 10 fold. For the same molecule, the “brain calculated concentration, individual (Group 1-3)” value in series [2] (0.25 h) is 17.9 ng/g and 13.1 ng/g; in series [2] (1 h), “BLQ and 6.18 ng/g”; in series [2] (3 h) it was “BLQ”. Moreover, the “brain calculated concentration, Mean” value in series [2] (0.25 h (15 min)) is recorded as 14 ng/g. Further, the “plasma concentration, individual (Group 1-3)” value in series [2] (0.25 hr) is 585 ng/mL and 766 ng/mL; in series [2] (1 hr), 41.2 ng/mL and 101 ng/mL and 68.7 ng/mL; in series [2] (3 hr), 5.97 ng/mL and 10.2 ng/mL. Moreover, the “brain levels at 3 h” value in series [2] (3 h) is “BLQ”. For the same molecule, the concentration at 0.25 h is 13.9 ng/g in series [2] (brain, 0.25 h (15 min), read-out: brain calculated concentration, Mean); 10.8 ng/g in series [2] (brain, 0.25 h, read-out: brain calculated concentration, individual (Group 1-3)); 642 ng/mL in series [2] (plasma, 0.25 hr (15 min), read-out: plasma concentration, Mean); 575 ng/mL in series [2] (plasma, 0.25 hr, read-out: plasma concentration, individual (Group 1-3)). In addition, the concentration at 1 h was 4.13 ng/g in series [2] (brain, 1 h, BLQ assumed to be 0.0, read-out: brain calculated concentration, Mean); 6.21 ng/g in series [2] (brain, 1 h, read-out: brain calculated concentration, individual (Group 1-3)); 70.4 ng/mL in series [2] (plasma, 1 hr, read-out: plasma concentration, Mean). The concentration at 3 h in series [2] (plasma, 3 hr, read-out: plasma concentration, Mean) amounted to 7.64 ng/mL; in series [2] (plasma, 3 hr, read-out: plasma concentration, individual (Group 1-3)) it was 6.78 ng/mL.
In the case of `O=C(O)CCC(=O)N1N=C(c2c(-c3ccc(Cl)cc3)c3ccccc3[nH]c2=O)CC1c1ccc(Cl)cc1` (stereo not drawn) [2a], the “I 30 μM / I control GluN2C” value at GluN1/GluN2C is listed as 3.1 ± 0.6 (2,6) %. The “I 30 μM / I control GluN2D” value on GluN1/GluN2D (30 μM, reproduced for comparison) is reported as 2.0 ± 1.0 (2,5) %. For the same molecule, at GluN1/GluN2D (GluN2D over GluN2A), the “Selectivity 2A IC50 / 2D IC50” value is reported as 48 fold. In addition, the “Selectivity 2B IC50 / 2D IC50” value on GluN1/GluN2D (GluN2D over GluN2B) was 50 fold. Besides, the “I 30 μM / I control GluN2B” value at GluN1/GluN2B is given as 44 ± 1.6 (2,8) %.
